Test results from PubChem BioAssay (NCI).
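How tested: cells in 96-well plates exposed to compound for 48 hours at five concentrations. TGI denotes the concentration required for complete inhibition of growth.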

Assays:
Assay in all cases: growth of human tumour cells (NCI), 48 h
SF-295 CNS = tested on: SF-295 CNS
OVCAR-8 ovarian = tested on: OVCAR-8 ovarian
NCI-H226 lung = tested on: NCI-H226 lung
K-562 leukemia = tested on: K-562 leukemia
SN12C renal = tested on: SN12C renal
MOLT-4 leukemia = tested on: MOLT-4 leukemia
IGROV1 ovarian = tested on: IGROV1 ovarian
SR leukemia = tested on: SR leukemia
786-0 renal = tested on: 786-0 renal
SW-620 colon = tested on: SW-620 colon
SK-OV-3 ovarian = tested on: SK-OV-3 ovarian
HT29 colon = tested on: HT29 colon
SNB-19 CNS = tested on: SNB-19 CNS
OVCAR-3 ovarian = tested on: OVCAR-3 ovarian
SNB-75 CNS = tested on: SNB-75 CNS
MDA-MB-435 = tested on: MDA-MB-435
UACC-257 melanoma = tested on: UACC-257 melanoma
SF-268 CNS = tested on: SF-268 CNS
CAKI-1 renal = tested on: CAKI-1 renal
A498 renal = tested on: A498 renal
MDA-N = tested on: MDA-N
NCI-H23 lung = tested on: NCI-H23 lung
KM12 colon = tested on: KM12 colon
SK-MEL-2 melanoma = tested on: SK-MEL-2 melanoma
U251 CNS = tested on: U251 CNS
OVCAR-5 ovarian = tested on: OVCAR-5 ovarian
DU-145 prostate = tested on: DU-145 prostate
TK-10 renal = tested on: TK-10 renal
MCF7 breast = tested on: MCF7 breast
OVCAR-4 ovarian = tested on: OVCAR-4 ovarian
HCT-116 colon = tested on: HCT-116 colon
LOX IMVI melanoma = tested on: LOX IMVI melanoma
SK-MEL-5 melanoma = tested on: SK-MEL-5 melanoma
M14 melanoma = tested on: M14 melanoma
MDA-MB-231 breast = tested on: MDA-MB-231 breast
BT-549 breast = tested on: BT-549 breast
NCI/ADR-RES ovarian = tested on: NCI/ADR-RES ovarian
UO-31 renal = tested on: UO-31 renal
HS 578T breast = tested on: HS 578T breast
EKVX NSCLC = tested on: EKVX NSCLC
A549 NSCLC = tested on: A549 NSCLC
HCT-15 colon = tested on: HCT-15 colon
CCRF-CEM leukemia = tested on: CCRF-CEM leukemia
HL-60(TB) leukemia = tested on: HL-60(TB) leukemia
PC-3 prostate = tested on: PC-3 prostate
ACHN renal = tested on: ACHN renal
SK-MEL-28 melanoma = tested on: SK-MEL-28 melanoma
UACC-62 melanoma = tested on: UACC-62 melanoma
SF-539 CNS = tested on: SF-539 CNS
COLO 205 colon = tested on: COLO 205 colon
T-47D breast = tested on: T-47D breast
RPMI-8226 leukemia = tested on: RPMI-8226 leukemia
HOP-62 NSCLC = tested on: HOP-62 NSCLC
NCI-H522 lung = tested on: NCI-H522 lung
HCC-2998 colon = tested on: HCC-2998 colon
NCI-H460 lung = tested on: NCI-H460 lung
RXF 393 renal = tested on: RXF 393 renal
MALME-3M melanoma = tested on: MALME-3M melanoma

CCNCC(O)COc1ccc2c(c1)[n+]([O-])nc(N)[n+]2[O-] (centres undefined)
TGI (SF-295 CNS): > 100 µM | TGI (OVCAR-8 ovarian): > 100 µM | TGI (NCI-H226 lung): > 100 µM | TGI (K-562 leukemia): > 100 µM | TGI (SN12C renal): > 100 µM | TGI (MOLT-4 leukemia): 56 µM | TGI (IGROV1 ovarian): > 100 µM | TGI (SR leukemia): > 100 µM | TGI (786-0 renal): > 100 µM | TGI (SW-620 colon): > 100 µM | TGI (SK-OV-3 ovarian): 82.1 µM | TGI (HT29 colon): > 100 µM | TGI (SNB-19 CNS): > 100 µM | TGI (OVCAR-3 ovarian): > 100 µM | TGI (SNB-75 CNS): > 100 µM | TGI (MDA-MB-435): > 100 µM | TGI (UACC-257 melanoma): > 100 µM | TGI (SF-268 CNS): > 100 µM | TGI (CAKI-1 renal): > 100 µM | TGI (A498 renal): > 100 µM | TGI (MDA-N): > 100 µM | TGI (NCI-H23 lung): > 100 µM | TGI (KM12 colon): > 100 µM | TGI (SK-MEL-2 melanoma): > 100 µM | TGI (U251 CNS): > 100 µM | TGI (OVCAR-5 ovarian): > 100 µM | TGI (DU-145 prostate): > 100 µM | TGI (TK-10 renal): > 100 µM | TGI (MCF7 breast): > 100 µM | TGI (OVCAR-4 ovarian): > 100 µM | TGI (HCT-116 colon): > 100 µM | TGI (LOX IMVI melanoma): 27.3 µM | TGI (SK-MEL-5 melanoma): > 100 µM | TGI (M14 melanoma): > 100 µM | TGI (MDA-MB-231 breast): > 100 µM | TGI (BT-549 breast): > 100 µM | TGI (NCI/ADR-RES ovarian): > 100 µM | TGI (UO-31 renal): > 100 µM | TGI (HS 578T breast): > 100 µM | TGI (EKVX NSCLC): > 100 µM | TGI (A549 NSCLC): > 100 µM | TGI (HCT-15 colon): > 100 µM | TGI (CCRF-CEM leukemia): > 100 µM | TGI (HL-60(TB) leukemia): > 100 µM | TGI (PC-3 prostate): > 100 µM | TGI (ACHN renal): > 100 µM | TGI (SK-MEL-28 melanoma): > 100 µM | TGI (UACC-62 melanoma): 69.8 µM | TGI (SF-539 CNS): > 100 µM | TGI (COLO 205 colon): > 100 µM | TGI (T-47D breast): > 100 µM | TGI (RPMI-8226 leukemia): > 100 µM | TGI (HOP-62 NSCLC): > 100 µM | TGI (NCI-H522 lung): 43.6 µM

S=c1nc2sc3c(c2c(Nc2ccccc2)[nH]1)CCCC3
TGI (SF-295 CNS): > 100 µM | TGI (OVCAR-8 ovarian): > 100 µM | TGI (NCI-H226 lung): > 100 µM | TGI (K-562 leukemia): > 100 µM | TGI (SN12C renal): > 100 µM | TGI (MOLT-4 leukemia): > 100 µM | TGI (IGROV1 ovarian): > 100 µM | TGI (SR leukemia): > 100 µM | TGI (786-0 renal): > 100 µM | TGI (SW-620 colon): > 100 µM | TGI (HCC-2998 colon): > 100 µM | TGI (HT29 colon): > 100 µM | TGI (SNB-19 CNS): > 100 µM | TGI (OVCAR-3 ovarian): > 100 µM | TGI (SNB-75 CNS): > 100 µM | TGI (MDA-MB-435): > 100 µM | TGI (UACC-257 melanoma): > 100 µM | TGI (SF-268 CNS): > 100 µM | TGI (CAKI-1 renal): > 100 µM | TGI (A498 renal): > 100 µM | TGI (NCI-H460 lung): > 100 µM | TGI (MDA-N): > 100 µM | TGI (NCI-H23 lung): > 100 µM | TGI (KM12 colon): > 100 µM | TGI (SK-MEL-2 melanoma): > 100 µM | TGI (U251 CNS): > 100 µM | TGI (OVCAR-5 ovarian): > 100 µM | TGI (DU-145 prostate): > 100 µM | TGI (TK-10 renal): > 100 µM | TGI (MCF7 breast): > 100 µM | TGI (OVCAR-4 ovarian): > 100 µM | TGI (HCT-116 colon): > 100 µM | TGI (LOX IMVI melanoma): > 100 µM | TGI (SK-MEL-5 melanoma): > 100 µM | TGI (MDA-MB-231 breast): > 100 µM | TGI (BT-549 breast): > 100 µM | TGI (NCI/ADR-RES ovarian): > 100 µM | TGI (UO-31 renal): > 100 µM | TGI (HS 578T breast): > 100 µM | TGI (EKVX NSCLC): > 100 µM | TGI (HCT-15 colon): > 100 µM | TGI (HL-60(TB) leukemia): > 100 µM | TGI (RXF 393 renal): > 100 µM | TGI (PC-3 prostate): > 100 µM | TGI (ACHN renal): > 100 µM | TGI (SK-MEL-28 melanoma): > 100 µM | TGI (UACC-62 melanoma): > 100 µM | TGI (MALME-3M melanoma): > 100 µM | TGI (COLO 205 colon): > 100 µM | TGI (T-47D breast): > 100 µM | TGI (RPMI-8226 leukemia): > 100 µM | TGI (HOP-62 NSCLC): > 100 µM | TGI (NCI-H522 lung): > 100 µM

CC(C)/C=N\N1C(N)=C(C#N)C(C#N)(C#N)C1C(C)C (centres undefined)
TGI (SF-295 CNS): > 100 µM | TGI (OVCAR-8 ovarian): 58.1 µM | TGI (NCI-H226 lung): > 100 µM | TGI (K-562 leukemia): > 100 µM | TGI (SN12C renal): > 100 µM | TGI (MOLT-4 leukemia): > 100 µM | TGI (IGROV1 ovarian): > 100 µM | TGI (SR leukemia): 82.9 µM | TGI (786-0 renal): > 100 µM | TGI (SW-620 colon): > 100 µM | TGI (HCC-2998 colon): > 100 µM | TGI (SK-OV-3 ovarian): > 100 µM | TGI (HT29 colon): 80 µM | TGI (SNB-19 CNS): > 100 µM | TGI (OVCAR-3 ovarian): > 100 µM | TGI (SNB-75 CNS): > 100 µM | TGI (MDA-MB-435): 58.6 µM | TGI (UACC-257 melanoma): > 100 µM | TGI (SF-268 CNS): > 100 µM | TGI (CAKI-1 renal): > 100 µM | TGI (A498 renal): > 100 µM | TGI (MDA-N): 69.8 µM | TGI (NCI-H23 lung): > 100 µM | TGI (KM12 colon): > 100 µM | TGI (SK-MEL-2 melanoma): > 100 µM | TGI (U251 CNS): > 100 µM | TGI (OVCAR-5 ovarian): > 100 µM | TGI (DU-145 prostate): > 100 µM | TGI (TK-10 renal): > 100 µM | TGI (MCF7 breast): > 100 µM | TGI (OVCAR-4 ovarian): > 100 µM | TGI (HCT-116 colon): > 100 µM | TGI (LOX IMVI melanoma): > 100 µM | TGI (SK-MEL-5 melanoma): > 100 µM | TGI (M14 melanoma): > 100 µM | TGI (MDA-MB-231 breast): > 100 µM | TGI (BT-549 breast): 92.3 µM | TGI (NCI/ADR-RES ovarian): 82.8 µM | TGI (UO-31 renal): > 100 µM | TGI (HS 578T breast): > 100 µM | TGI (EKVX NSCLC): > 100 µM | TGI (A549 NSCLC): > 100 µM | TGI (HCT-15 colon): > 100 µM | TGI (CCRF-CEM leukemia): 93.2 µM | TGI (HL-60(TB) leukemia): 91.7 µM | TGI (RXF 393 renal): > 100 µM | TGI (PC-3 prostate): > 100 µM | TGI (ACHN renal): > 100 µM | TGI (SK-MEL-28 melanoma): > 100 µM | TGI (UACC-62 melanoma): 76.5 µM | TGI (MALME-3M melanoma): > 100 µM | TGI (SF-539 CNS): 64.8 µM | TGI (COLO 205 colon): > 100 µM | TGI (T-47D breast): > 100 µM | TGI (RPMI-8226 leukemia): > 100 µM | TGI (HOP-62 NSCLC): > 100 µM | TGI (NCI-H522 lung): > 100 µM
